Test results: patent US20050009886A1, “1,4-Dihydropyridine derivative with a guaiacoxypropanolamine and/or phenoxypropanolamine moiety” (priority 1998, published 2005)

Assays:
[1] = target: T1, lung β 2-receptor (Rattus norvegicus, UniProt P10608); assay type: binding, Wistar rat; details: 25° C., 60 minutes
T1 construct: The heart and lung of rat were removed and placed in cold Tris buffer; from tissue; host or cells: membrane preparation from rat lung

[2] = target: T2, β-adrenoreceptor (β1) (Rattus norvegicus, UniProt P18090); assay: Isolated left atrium, L-isoproterenol-induced contractility increase (pA2); set-up: species or system Wistar rat; details: for β1 Value of pA2 Left Atrium: vs L-isoproterenol, electrically stimulated
T2 construct: The right and left atria were then separated; from tissue; host or cells: isolated rat right atrium (spontaneously beating) and left atrium (electrically paced)
T2 sequence (P18090 whole entry): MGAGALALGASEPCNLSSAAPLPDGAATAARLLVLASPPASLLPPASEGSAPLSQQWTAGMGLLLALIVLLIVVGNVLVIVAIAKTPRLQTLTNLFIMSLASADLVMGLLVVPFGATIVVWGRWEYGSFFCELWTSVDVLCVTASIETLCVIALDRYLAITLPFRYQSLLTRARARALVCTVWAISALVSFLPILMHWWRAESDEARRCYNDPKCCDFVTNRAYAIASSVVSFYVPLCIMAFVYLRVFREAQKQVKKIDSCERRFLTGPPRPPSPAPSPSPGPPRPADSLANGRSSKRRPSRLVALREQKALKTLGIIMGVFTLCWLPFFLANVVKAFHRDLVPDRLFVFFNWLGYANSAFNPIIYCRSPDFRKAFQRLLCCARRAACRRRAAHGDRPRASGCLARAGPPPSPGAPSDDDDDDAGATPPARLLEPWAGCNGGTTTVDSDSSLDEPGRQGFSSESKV
Experimental: The inspontaneously-beating left atrial tissue was obtained from rat's isolated right atrial tissue experiments. […] The contraction rate was 1 Hz and the resting tension 0.5 gm. After 60 minutes of equilibration, the following experiments were performed:
(a) Completion of cumulative concentration-response curve: similar to experimental method on isolated right atrium;
(b) Calculation of pA2 value: similar to calculation method on isolated right atrium.

[3] = target: T3, β2-adrenoceptor (Cavia porcellus, UniProt Q8K4Z4); assay: Direct effect (intrinsic sympathomimetic activity) on reserpine pretreated isolated tracheal; set-up: species or system guinea pig
T3 construct: a portion of tracheal approximately 4 cm long was removed; from tissue; host or cells: isolated trachea of reserpine-pretreated guinea pigs
T3 sequence (Q8K4Z4 whole entry): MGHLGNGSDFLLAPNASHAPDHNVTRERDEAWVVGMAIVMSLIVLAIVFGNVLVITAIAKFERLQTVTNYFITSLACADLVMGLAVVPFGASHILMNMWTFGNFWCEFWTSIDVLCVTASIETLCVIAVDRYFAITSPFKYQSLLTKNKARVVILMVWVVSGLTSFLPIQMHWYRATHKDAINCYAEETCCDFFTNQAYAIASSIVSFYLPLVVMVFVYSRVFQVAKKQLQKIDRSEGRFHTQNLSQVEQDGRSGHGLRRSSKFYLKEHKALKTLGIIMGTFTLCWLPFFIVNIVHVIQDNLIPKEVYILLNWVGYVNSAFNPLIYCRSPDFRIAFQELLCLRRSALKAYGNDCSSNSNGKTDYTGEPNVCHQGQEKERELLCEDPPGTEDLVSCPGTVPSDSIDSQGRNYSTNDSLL
Experimental: 18˜24 hours before the experiment, 5 mg/kg of reserpine was injected via abdominal cavity to remove all endogenous catecholamines. Prior experiment, guinea pigs were sacrificed, the tracheal was immediately removed and placed in Kreb's solution aerated with air mixture and maintained at room temperature of 22˜25° C. […] Then the tissue was repeatedly washed with Kreb's solution.

[4] = target: T4, β2 (Cavia porcellus, UniProt Q8K4Z4); assay: Guinea pig's isolated tracheal, L-isoproterenol relaxation of carbachol contraction (pA2); details: for β2 Value of pA2 Tracheal: vs L-isoproterenol, carbachol 10^−6 M contraction
T4 construct: a portion of tracheal approximately 4 cm long was removed; from tissue; host or cells: isolated trachea of reserpine-pretreated guinea pigs
T4 sequence (Q8K4Z4 whole entry): as above
Experimental: Guinea pigs of weight between 300˜500 gm were used. […] After the guinea pigs were sacrificed, a slit was made along the neck, and a portion of tracheal approximately 4 cm long was removed. […] The two ends of the tracheal were clamped with frog-heart shaped clamps, one end was fixed at the bottom of tissue bath filled with 20 ml of Kreb's solution, maintained at 37° C., while the other end was connected to a force transducer. Through a COULBOURN AT-High-Speed Videograph, long isometric contractions were recorded. After the sample was given 1.5 gm of tension and equilibrated, the following experiments were performed:
Then the tracheal was repeatedly washed with Kreb's solution for 20 minutes and 10−6 M of carbochol was added to cause contraction in the guinea pig's tracheal. […] This is the test group.
(b) Calculation of pA2: similar to the calculation method for isolated right atrium experiment.

[5] = system: thoracic aorta; assay: Isolated thoracic aorta contraction caused by 75 mM KCl; set-up: species or system Wistar rat
Experimental: After sacrificing Wistar rat of weight between 300-500 gm, the thoracic aorta was immediately removed and placed in cold Kreb's solution. The fatty connecting tissue surrounding the vessel wall was removed and the thoracic aorta was cut into rings of length 5 mm. The two ends of each ring was pieced and fixed with “Z” shaped platinum wires. […] The sample was given 1 gm of tension and equilibrated for 60 minutes before the following experiments were carried out:
After thoracic aorta had reached equilibrium in the tissue trough, the normal Kreb's solution in the trough was replaced with 75 mM KCl solution to induce vasoconstriction. When the results had been recorded for at least 35 minutes, the aorta was repeatedly rinsed with normal Kreb's solution. After the aorta had re-equilibrated and at least rested for 60 minutes, different concentrations (10^−8, 10^−7, 10^−6, and 10^−5M) of compound 1 were separately added. 30 minutes later, 75 mM KCl was added again to induce vasoconstriction. This method was used to compare the differences in contraction induced by 75 mM KCl on thoracic aorta pre-treated and non-treated with compound 1.
0.1 μM of BayK8644 was first added into the tissue trough. 10 minutes later, 75 mM of concentrated Potassium solution was added to induce thoracic aorta contraction. When vasoconstriction had reached stability, different concentrations of (10^−8, 10^−7, 10^−6, and 10^−5M) compound 1 were separately added. The effects of aorta contraction induced by concentrated Potassium solution were observed.

[6] = target: T2, β-adrenoreceptor (β1); assay: Isolated right atrium, L-isoproterenol-induced heart rate increase (pA2); set-up: species or system Wistar rat; details: for β1 Value of pA2 Right Atrium: vs L-isoproterenol, Schild plot
Experimental: The right and left atria were then separated. The spontaneously-beating right atria was clipped on both end by heart shaped clips, where one end was fixed at the bottom of 10 ml of tissue bath made of physiological saline solution, and temperature maintained at 37° C. The other end of the atria was connected to a force transducer, and isometric contractions and beating rate of the right atria were recorded by COULBOURN AT-High-Speed VideoFigure. After the samples were given 250 mg of contractions and reach equilibrium the following experiments were carried out: • (a) β-adrenoceptor blocking action
Cumulative administration interval was when the previous concentration reached its greatest effect, the next concentration would be immediately given.
The equation is as follows: pA2=−Log KB Log(DRADJ−1)=nlog[B]−LogKB [formula]
[B] Test compound concentration in moles • KB: equilibrium dissociation constant • n: value of slope DR: test EC50 divided by control EC50 • CF: EC50 of second or third control groups divided by EC50 of first control group (c) Effect of Compound on the Increase of Spontaneous Beating in Right Atrium Caused by CaCl2

[7] = Heart rate and blood pressure in living rat; assay type: in vivo, Wistar rats
Excerpt: Male Wistar rats, weighing 200˜300 g were abdominal anaesthetized with pentobarbital sodium. Tracheal was cannulated to maintain normal respiration. Polyethylene tube was inserted into the left femoral vein to facilitate drug administration. A 3-way stopcock was used, with one end connected to a syringe for drug injection, while the other end was connected to the syringe filled with physiological saline. The latter was used to prevent residual drugs in the polyethylene tube after injection, which would affect experimental accuracy.
The right femoral artery was also inserted with polyethylene, and a 3-way stopcock was used too, where one end was connected to heparin solution to prevent embolism. The other end was connected to a Disposable Diaphragm Dome, TA1019, and linked to a transducer. Through an amplifier, a recorder recorded the overall and average arterial pressure; heart rate to evaluate the effect of drug on blood pressure and heart rate.

[8] = 1 mg/kg via femoral vein, anaesthetized rat
[9] = intravenous 0.1-2.0 mg/kg, normotensive rats

T1 sequence (P10608 whole entry): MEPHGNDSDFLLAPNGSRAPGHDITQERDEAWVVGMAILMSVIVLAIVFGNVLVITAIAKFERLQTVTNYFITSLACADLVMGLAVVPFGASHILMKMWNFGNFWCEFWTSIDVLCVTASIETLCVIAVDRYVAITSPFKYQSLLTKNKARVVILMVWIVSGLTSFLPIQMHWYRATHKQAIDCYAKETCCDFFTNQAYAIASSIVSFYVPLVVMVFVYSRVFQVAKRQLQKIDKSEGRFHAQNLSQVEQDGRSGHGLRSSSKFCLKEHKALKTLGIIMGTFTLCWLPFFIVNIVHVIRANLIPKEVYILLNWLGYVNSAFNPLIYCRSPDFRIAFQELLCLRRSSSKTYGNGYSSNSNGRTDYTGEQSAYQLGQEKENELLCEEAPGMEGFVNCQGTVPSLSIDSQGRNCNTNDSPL

COC(=O)C1=C(C)NC(C)=C(C(=O)OC)C1c1ccc(OCC(O)CNC(C)(C)C)c(OC)c1 (stereo not drawn) [Compound 1]
[^3H] CGP-12177 (β2) pKi [1]: 6.20 ± 0.55 | block of heart contractility increment effect of L-isoproterenol ([2]; left atrium, 10^−6, 10^−5, and 10^−6 M as printed): could competitively block | β1 Left Atrium (Slope) ([2]; slope of Schild regression): (0.85 ± 0.02) | β1 Value of pA2 Left Atrium [2]: 6.91 ± 0.26 | β1 Value of pA2 Left Atrium ([2]; listed as compound 1): 6.91±0.26 | tracheal relaxation after pretreatment with ICI118, 551 ([3]; ICI 118, 551 10^−8, 10^−9, 10^−10M for 30 minutes (nifedipine: 10^−8 M)): concentration-dependently shifting parallel to the right | direct tracheal relaxation effect ([3]; cumulative 10^−10˜3×10^−6 M, reserpine pretreated tracheal): dose-dependant tracheal relaxation effect | block of the tracheal effect of L-isoproterenol ([4]; 10^−6, 10^−5, and 10^−6 M as printed): could competitively block | β2 Tracheal (slope) ([4]; slope of Schild regression): (0.84 ± 0.09) | β2 Value of pA2 Tracheal [4]: 7.09 ± 0.54 | β2 Value of pA2 Tracheal ([4]; listed as compound 1): 7.09±0.54 | effect on 75 mM KCl contracted thoracic aorta ([5]; 10^−8, 10^−7, 10^−6, and 10^−5 M): dose-dependant vasoconstriction | Aorta Relaxation ([5]; 10^−8M, 75 mM KCl contraction): 30 ± 3% | effect of 0.1 μM BayK8644 pre-treatment on the aorta effect ([5]; BayK8644 0.1 μM 10 minutes, then concentrated Potassium solution): would affect vasoconstriction function | Ratio of β1 and Calcium Antagonism [6]: 0.12 | effect on right atrium relative to tracheal (selectivity ratio of β1 type adrenoceptor) ([6]; from average pA2 difference between right atrium and tracheal): 1.32 × | β1/β2 ([6]; from pA2 difference right atrium vs tracheal): 1.32 | block of heart rate increment effect of L-isoproterenol ([6]; right atrium, 10^−6, 10^−5, and 10^−6 M as printed): could competitively block | β1 Right Atrium (Slope) ([6]; slope of Schild regression): (0.94 ± 0.18) | β1 Value of pA2 Right Atrium [6]: 7.21 ± 0.32 | β1 Value of pA2 Right Atrium ([6]; listed as compound 1): 7.21±0.32 | selectivity on the type of β-adrenoceptor ([6]; β1:β2): non-selective | Lowering of Blood Pressure [7, 8]: 70 ± 3 mmHg | Reduction of Heart Rate [7, 8]: 30 ± 2 beats/min | effect on heart rate ([7]; intravenous 0.5 mg/kg): a decrease in heart rate | duration of blood pressure lowering effect [7, 9]: approximately 1 hour | effect on blood pressure and heart rate [7, 9]: continuous dose-dependent blood pressure lowering effect without increasing heart rate
